Measured values: the NIST ThermoML archive (doi:10.1021/je900757k)

Experiment: isobaric coefficient of expansion
Settings: Liquid, DSC

ClC(Cl)(Cl)Cl [tetrachloromethane]
isobaric coefficient of expansion
Settings	278.15 K	288.15 K	298.15 K	308.15 K	318.15 K	328.15 K	338.15 K	348.15 K
5000 kPa	0.00114 1/K	0.00116 1/K	0.00119 1/K	0.00121 1/K	0.00124 1/K	0.00126 1/K	0.0013 1/K	0.00132 1/K
10000 kPa	0.00112 1/K	0.00113 1/K	0.00116 1/K	0.00117 1/K	0.0012 1/K	0.00122 1/K	0.00125 1/K	0.00126 1/K
15000 kPa	0.00108 1/K	0.0011 1/K	0.00113 1/K	0.00114 1/K	0.00116 1/K	0.00118 1/K	0.00119 1/K	0.00121 1/K
20000 kPa	0.00106 1/K	0.00108 1/K	0.00109 1/K	0.00111 1/K	0.00113 1/K	0.00114 1/K	0.00115 1/K	0.00116 1/K
25000 kPa	0.00104 1/K	0.00105 1/K	0.00107 1/K	0.00108 1/K	0.00109 1/K	0.0011 1/K	0.00111 1/K	0.00112 1/K
30000 kPa	0.00102 1/K	0.00103 1/K	0.00104 1/K	0.00105 1/K	0.00106 1/K	0.00107 1/K	0.00108 1/K	0.00109 1/K
35000 kPa	0.001 1/K	0.00101 1/K	0.00102 1/K	0.00103 1/K	0.00104 1/K	0.00104 1/K	0.00105 1/K	0.00105 1/K
40000 kPa	0.000979 1/K	0.000985 1/K	0.000996 1/K	0.00101 1/K	0.00101 1/K	0.00101 1/K	0.00102 1/K	0.00102 1/K
45000 kPa	0.000959 1/K	0.000967 1/K	0.000978 1/K	0.000978 1/K	0.000986 1/K	0.000986 1/K	0.000988 1/K	0.000993 1/K
50000 kPa	0.000943 1/K	0.000949 1/K	0.000955 1/K	0.000959 1/K	0.00097 1/K	0.000965 1/K	0.000967 1/K	0.000969 1/K
55000 kPa	0.000936 1/K	0.00093 1/K	0.000935 1/K	0.00094 1/K	0.00095 1/K	0.000946 1/K	0.000945 1/K	0.000947 1/K

CCCCCCCCCC [decane]
isobaric coefficient of expansion
Settings	278.15 K	288.15 K	298.15 K	308.15 K	318.15 K	328.15 K	338.15 K	348.15 K
5000 kPa	0.000969 1/K	0.000985 1/K	0.001 1/K	0.00102 1/K	0.00103 1/K	0.00105 1/K	0.00107 1/K	0.00108 1/K
10000 kPa	0.000945 1/K	0.000958 1/K	0.000975 1/K	0.000988 1/K	0.001 1/K	0.00101 1/K	0.00103 1/K	0.00103 1/K
15000 kPa	0.000922 1/K	0.000933 1/K	0.000949 1/K	0.000956 1/K	0.00097 1/K	0.000977 1/K	0.000987 1/K	0.000992 1/K
20000 kPa	0.000899 1/K	0.000907 1/K	0.000918 1/K	0.000928 1/K	0.000935 1/K	0.000942 1/K	0.00095 1/K	0.000956 1/K
25000 kPa	0.000878 1/K	0.000886 1/K	0.000896 1/K	0.000902 1/K	0.000907 1/K	0.000915 1/K	0.000919 1/K	0.000922 1/K
30000 kPa	0.000859 1/K	0.000868 1/K	0.000871 1/K	0.000878 1/K	0.000883 1/K	0.000885 1/K	0.000891 1/K	0.000893 1/K
35000 kPa	0.000843 1/K	0.000846 1/K	0.000849 1/K	0.000856 1/K	0.000858 1/K	0.000862 1/K	0.000862 1/K	0.000865 1/K
40000 kPa	0.000817 1/K	0.000823 1/K	0.000829 1/K	0.000834 1/K	0.000833 1/K	0.000833 1/K	0.000836 1/K	0.000835 1/K
45000 kPa	0.000807 1/K	0.000812 1/K	0.000812 1/K	0.000812 1/K	0.000815 1/K	0.000815 1/K	0.000816 1/K	0.000816 1/K
50000 kPa	0.000793 1/K	0.000797 1/K	0.000794 1/K	0.000796 1/K	0.000802 1/K	0.000797 1/K	0.000796 1/K	0.000795 1/K
55000 kPa	0.000784 1/K	0.00078 1/K	0.00078 1/K	0.000782 1/K	0.000781 1/K	0.000781 1/K	0.000779 1/K	0.000778 1/K
